The text below walks through data of patent US7179823B1, “5-membered n-heterocyclic compounds with hypoglycemic and hypolipidemic activity” (Takeda Pharmaceutical Company Limited, priority 1999, dated 2007).

Where two headings read alike, the source gives them in different places.

Data set [1] concerns KKA^y mice. Description: Total cholesterol lowering action and plasma anti-arteriosclerosis index-enhancing action in mice. Format: in vivo. Particulars: four days, non-treatment group taken as 100%; for change in vivo at 0.005 % / inhibition in vivo at 0.005 % / change in vivo at 0.001 % / inhibition in vivo at 0.001 %: Mus musculus, po, 96 h; for change in vivo at 0.005 % / inhibition in vivo at 0.005 %: 0.005% in powdery diet; for change in vivo at 0.005 % / change in vivo at 0.001 %: read-out: Plasma anti-arteriosclerosis index-enchancing action (%). The text has this:
Total Cholesterol Lowering Action and Plasma Anti-Arteriosclerosis Index-Enhancing Action in Mice
Test compounds were mixed in a powdery diet (CE-2, Japan Clea) at the concentration of 0.01% (compounds of Examples 12, 30, 89), 0.005% (compounds of Examples 38, 40, 44, 181, 184, 262, 283), or 0.001% (compounds of Examples 9, 156, 167, 172, 174, 176, 189), and freely given to KKA^y mice (9 to 12 weeks old, 5 mice per group), a model of obese and type 2 diabetes mellitus, for four days. During this period, water was given freely. Blood was sampled from orbital venous plexus and plasma was separated. Total cholesterol levels were determined by using L type Wako Cholesterol (Wako Pure Chemical Industries, Ltd.). Precipitation reagent for apoB containing lipoprotein was added to a part of the plasma to precipitate non-HDL lipoprotein, and cholesterol (HDL cholesterol) in the resulting supernatant was determined. The plasma anti-arteriosclerosis index [(HDL cholesterol/total cholesterol)×100] was calculated by using these cholesterol levels.
In the Table, “Total cholesterol lowering action (%)” represents the percent reduction (%) of total cholesterol level in the treatment group, when the total cholesterol level in the non-treatment group is taken as 100%. “Plasma anti-arteriosclerosis index-enhancing action (%)” represents the percent increase (%) of plasma anti-arteriosclerosis index in the treatment group, when the plasma anti-arteriosclerosis index in the non-treatment group is taken as 100%.

The subject of data set [2] is KKA^y mice. The data set is described as follows: Hypoglycemic and hypolipidemic actions in mice. Type of data set: in vivo. The note with it: four days; for inhibition in vivo at 0.005 % / inhibition in vivo at 0.001 % / inhibition in vivo at 0.01 %: Mus musculus, po, 96 h; for inhibition in vivo at 0.005 %: 0.005% in powdery diet; for inhibition in vivo at 0.01 %: 0.01% in powdery diet. The text has this: Hypoglycemic and Hypolipidemic Actions in Mice
Test compounds were mixed in a powdery diet (CE-2, Japan Clea) at the concentration of 0.01% (compounds of Examples 12, 30, 89, 186), 0.005% (compounds of Examples 7, 80, 82, 181, 182, 184, 256, 262, 283), 0.001% (compounds of Examples 9, 104, 110, 155, 156, 160, 167, 169, 172, 174, 176, 189), or 0.0003% (compounds of Examples 38, 40, 44), and freely given to KKA^y mice (9 to 12 weeks old, 5 mice in a group), a model of obese and type 2 diabetes mellitus, for four days. During this period, water was given freely. Blood was sampled from orbital venous plexus, and glucose and triglyceride levels in plasma separated from blood were determined enzymatically using L type Wako Glu2 (Wako Pure Chemical Industries, Ltd.) or L type Wako TG•H (Wako Pure Chemical Industries, Ltd.), respectively.
In the Table, the value of each treatment group is represented as percent reduction compared with the non-treatment group.

Setting [3] is: percent increase of [(HDL cholesterol/total cholesterol)×100].
Setting [4] is: percent reduction of plasma total cholesterol.
The mark [5] stands for this setting: percent reduction of plasma glucose compared with the non-treatment group, read-out: Hypoglycemic action (%).
[6] abbreviates: percent reduction of plasma triglyceride compared with the non-treatment group, read-out: Hypolipidemic action (%).
[7] abbreviates: 0.001% in powdery diet, percent increase of [(HDL cholesterol/total cholesterol)×100].
[8] abbreviates: 0.001% in powdery diet, percent reduction of plasma total cholesterol.
Where [9] appears, read: 0.001% in powdery diet, percent reduction of plasma glucose compared with the non-treatment group, read-out: Hypoglycemic action (%).
The mark [10] stands for this setting: 0.001% in powdery diet, percent reduction of plasma triglyceride compared with the non-treatment group, read-out: Hypolipidemic action (%).

On to `CCOc1nn(Cc2ccc(OCc3csc(-c4ccccc4)n3)cc2)cc1CCC(=O)O` [Example 181, 3-[3-ethoxy-1-[4-(2-phenyl-4-thiazolylmethoxy)benzyl]-1H-pyrazol-4-yl]propionic acid], for which the change in vivo at 0.005 % with KKA^y mice [1] (setting [3]) amounted to 21%. Besides, the figures for the inhibition in vivo at 0.005 % in the data set on KKA^y mice [1] (setting [4]), in the data set with KKA^y mice [2] (setting [5]) and with KKA^y mice [2] (setting [6]) were 25%, 56% and 63%, respectively.

In the case of `CCOc1nn(Cc2ccc(OCc3nc(-c4cccs4)oc3C)c(OC)c2)cc1CCC(=O)O` [Example 176], the “Plasma anti-arteriosclerosis index-enchancing action (%)” value in the data set with KKA^y mice [1] (setting [7]) came to 11%. In addition, the “Total cholesterol lowering action (%)” value in the data set on KKA^y mice [1] (setting [8]) is 23%. Also, the “Hypoglycemic action (%)” value in the data set on KKA^y mice [2] (0.001% in powdery diet, percent reduction of plasma glucose compared with the non-treatment group) is 40%. Also, the “Hypolipidemic action (%)” value with KKA^y mice [2] (0.001% in powdery diet, percent reduction of plasma triglyceride compared with the non-treatment group) is 66%.

As to `CCOc1nn(Cc2ccc(OCc3nc(-c4ccccc4)oc3C)c(OC)c2)cc1CCC(=O)O` [Example 172, 3-[3-ethoxy-1-[3-methoxy-4-(5-methyl-2-phenyl-4-oxazolylmethoxy)benzyl]-1H-pyrazol-4-yl]propionic acid], the change in vivo at 0.001 % in the data set on KKA^y mice [1] (setting [7]) was found to be 11%. Further, the values for the inhibition in vivo at 0.001 % in the data set on KKA^y mice [1] (setting [8]), with KKA^y mice [2] (setting [9]) and with KKA^y mice [2] (setting [10]) were 20%, 42% and 62%, respectively.

Consider `CCOc1nn(Cc2ccc(OCc3nc(-c4ccco4)oc3C)c(OC)c2)cc1CCC(=O)O` [Example 174, 3-[3-ethoxy-1-[4-[2-(2-furyl)-5-methyl-4-oxazolylmethoxy]-3-methoxybenzyl]-1H-pyrazol-4-yl]propionic acid], for which the change in vivo at 0.001 % in the data set on KKA^y mice [1] (setting [7]) came to 10%. The inhibition in vivo at 0.001 % is 19% in the data set with KKA^y mice [1] (setting [8]), 40% with KKA^y mice [2] (setting [9]) and 52% in the data set on KKA^y mice [2] (setting [10]).

As to `CCOc1nn(Cc2ccc(OCc3nc(-c4ccccc4)sc3C)cc2)cc1CCC(=O)O` [Example 182, 3-[3-ethoxy-1-[4-(5-methyl-2-phenyl-4-thiazolylmethoxy)benzyl]-1H-pyrazol-4-yl]propionic acid], the inhibition in vivo at 0.005 % in the data set on KKA^y mice [2] (setting [5]) turned out to be 34%; with KKA^y mice [2] (setting [6]) it was 12%.

As for `CCOc1nn(Cc2ccc(OCc3nc(-c4ccccc4)oc3C)cc2)cc1CCC(=O)O` [Example 155, 3-[3-ethoxy-1-[4-(5-methyl-2-phenyl-4-oxazolylmethoxy)benzyl]-1H-pyrazol-4-yl]propionic acid], the inhibition in vivo at 0.001 % in the data set with KKA^y mice [2] (setting [9]) turned out to be 49%; in the data set with KKA^y mice [2] (setting [10]), 56%.

For `CCOc1nn(Cc2ccc(OCc3coc(-c4ccccc4)n3)cc2)cc1CCC(=O)O` [Example 186, 3-[3-ethoxy-1-[4-(2-phenyl-4-oxazolylmethoxy)benzyl]-1H-pyrazol-4-yl]propionic acid], the figures for the inhibition in vivo at 0.01 % with KKA^y mice [2] (setting [5]) and with KKA^y mice [2] (setting [6]) were 57% and 78%, respectively.

For the molecule `CCOc1nn(Cc2ccc(OCc3nc(-c4ccccc4)oc3C)nc2)cc1CCC(=O)O` [Example 184, 3-[3-ethoxy-1-[2-(5-methyl-2-phenyl-4-oxazolylmethoxy)-5-pyridylmethyl]-1H-pyrazol-4-yl]propionic acid], the change in vivo at 0.005 % in the data set on KKA^y mice [1] (setting [3]) came out at 17%. Further, the inhibition in vivo at 0.005 % was 27% in the data set with KKA^y mice [1] (setting [4]), 56% in the data set on KKA^y mice [2] (setting [5]) and 82% in the data set on KKA^y mice [2] (setting [6]).

On to `CCOc1nn(Cc2ccc(OCc3nc(-c4cccs4)oc3C)cc2)cc1CCC(=O)O` [Example 189, 3-[3-ethoxy-1-[4-[5-methyl-2-(2-thienyl)-4-oxazolylmethoxy]benzyl]-1H-pyrazol-4-yl]propionic acid], for which the change in vivo at 0.001 % with KKA^y mice [1] (setting [7]) was found to be 20%. Further, the results for the inhibition in vivo at 0.001 % with KKA^y mice [1] (setting [8]), in the data set on KKA^y mice [2] (setting [9]) and in the data set on KKA^y mice [2] (setting [10]) were 21%, 44% and 75%, respectively.

For the molecule `CCCOc1nn(Cc2ccc(OCc3nc(-c4ccccc4)oc3C)cc2)cc1CCC(=O)O` [Example 156, 3-[1-[4-(5-methyl-2-phenyl-4-oxazolylmethoxy)benzyl]-3-propyloxy-1H-pyrazol-4-yl]propionic acid], the change in vivo at 0.001 % in the data set on KKA^y mice [1] (setting [7]) amounted to 15%. Also, the inhibition in vivo at 0.001 % with KKA^y mice [1] (setting [8]) was 20%; with KKA^y mice [2] (setting [9]), 45%; in the data set on KKA^y mice [2] (setting [10]), 80%.

On to `Cc1oc(-c2ccco2)nc1COc1ccc(Cn2cc(CCC(=O)O)c(OCc3ccccc3)n2)cc1` [Example 169, 3-[3-benzyloxy-1-[4-[2-(2-furyl)-5-methyl-4-oxazolylmethoxy]benzyl]-1H-pyrazol-4-yl]propionic acid], for which the inhibition in vivo at 0.001 % in the data set on KKA^y mice [2] (setting [9]) amounted to 48%; in the data set with KKA^y mice [2] (setting [10]) it was 39%.

One may read the melting point as the temperature, or range, at which the solid turns liquid. Take `Cc1oc(-c2ccccc2)nc1COc1ccc(Cn2cc(CCC(=O)O)c(OCc3ccccc3)n2)cc1` [Example 160, 3-[3-benzyloxy-1-[4-(5-methyl-2-phenyl-4-oxazolylmethoxy)benzyl]-1H-pyrazol-4-yl]propionic acid]: the melting point was 108 to 109 °C. The inhibition in vivo at 0.001 % with KKA^y mice [2] (setting [9]) was determined as 54%. Moreover, the inhibition in vivo at 0.001 % in the data set with KKA^y mice [2] (setting [10]) was 57%.

`CCOc1nn(Cc2ccc(OCc3nc(-c4ccco4)oc3C)cc2)cc1CCC(=O)O` [Example 167, 3-[3-ethoxy-1-[4-[2-(2-furyl)-5-methyl-4-oxazolylmethoxy]benzyl]-1H-pyrazol-4-yl]propionic acid]: the change in vivo at 0.001 % with KKA^y mice [1] (setting [7]) was 9%. The figures for the inhibition in vivo at 0.001 % in the data set on KKA^y mice [1] (setting [8]), with KKA^y mice [2] (setting [9]) and with KKA^y mice [2] (setting [10]) were 19%, 48% and 60%, respectively.

Molecule `CCOc1nn(Cc2ccc(OCc3nc(-c4ccco4)oc3C)nc2)cc1CC(=O)O` [Example 264, 3-ethoxy-1-[6-[2-(2-furyl)-5-methyl-4-oxazolylmethoxy]-3-pyridylmethyl]-1H-pyrazol-4-ylacetic acid] yielded a melting point of 155 to 156 °C.

In turn, `CCOC(=O)/C=C/c1cn(Cc2ccc(Oc3ccccc3)cc2)nc1OCc1nc(-c2ccccc2)oc1C` [Example 332, ethyl(E)-3-[3-(5-methyl-2-phenyl-4-oxazolylmethoxy)-1-(4-phenoxybenzyl)-1H-pyrazol-4-yl]propenoate] gave a melting point of 93 to 94 °C.

In turn, `Cc1oc(-c2ccccc2)nc1COc1ccc(Cn2cc(CCCCC(=O)O)c(-c3ccccc3)n2)cc1` [Example 97, 5-[1-[4-(5-methyl-2-phenyl-4-oxazolylmethoxy)benzyl]-3-phenyl-1H-pyrazol-4-yl]pentanoic acid] came in with a melting point of 109 to 110 °C.

As for `O=C(O)Cc1cn(Cc2ccc(OCc3csc(-c4ccccc4)n3)nc2)nc1-c1ccccc1` [Example 310, [3-phenyl-1-[6-(2-phenyl-4-thiazolylmethoxy)-3-pyridylmethyl]-1H-pyrazol-4-yl]acetic acid], the melting point fell in the range of 118 to 119 °C.
